According to patent US20080234262A1 (Wyeth, priority 2007, published 2008):

Key:
[1] = tested on: breast line MDA468; test: In vitro cell culture growth assay (MTS), MDA468; format: cell-based, human; conditions: Homo sapiens, 72 h, MDA468 cells, three days after drug treatment
Description: Human tumor cell lines used include prostate lines LNCap and PC3MM2, breast lines MDA468, MCF7, renal line HTB44 (A498), colon line HCT116, and ovarian line OVCAR3. Cells were plated in 96-well culture plates. One day following plating, the inhibitors were added to cells. Three days after drug treatment, viable cell densities were determined by metabolic conversion (by viable cells) of the dye MTS, a well established cell proliferation assay. The assays were performed using an assay kit purchased from Promega Corp. (Madison, Wis.) following the protocol supplied with the kit. The MTS assay results were read in a 96-well plate reader by measuring absorbance at 490 nm. The effect of each treatment was calculated as percent of control growth relative to the vehicle-treated cells grown in the same culture plate.

[2] = target: PI3K (Homo sapiens, UniProt P42336); test: Fluorescence polarization assay for PI3K; format: biochemical; conditions: PI3Kα; read-out: PI3Kα IC50;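 note: PI3K kinase reaction on PIP2 with ATP, 30-60 min, product sensed by GST-GRP with red probe in fluorescence polarization (mP), controls without enzyme and at zero time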
Chain of PI3K (P42336 whole entry): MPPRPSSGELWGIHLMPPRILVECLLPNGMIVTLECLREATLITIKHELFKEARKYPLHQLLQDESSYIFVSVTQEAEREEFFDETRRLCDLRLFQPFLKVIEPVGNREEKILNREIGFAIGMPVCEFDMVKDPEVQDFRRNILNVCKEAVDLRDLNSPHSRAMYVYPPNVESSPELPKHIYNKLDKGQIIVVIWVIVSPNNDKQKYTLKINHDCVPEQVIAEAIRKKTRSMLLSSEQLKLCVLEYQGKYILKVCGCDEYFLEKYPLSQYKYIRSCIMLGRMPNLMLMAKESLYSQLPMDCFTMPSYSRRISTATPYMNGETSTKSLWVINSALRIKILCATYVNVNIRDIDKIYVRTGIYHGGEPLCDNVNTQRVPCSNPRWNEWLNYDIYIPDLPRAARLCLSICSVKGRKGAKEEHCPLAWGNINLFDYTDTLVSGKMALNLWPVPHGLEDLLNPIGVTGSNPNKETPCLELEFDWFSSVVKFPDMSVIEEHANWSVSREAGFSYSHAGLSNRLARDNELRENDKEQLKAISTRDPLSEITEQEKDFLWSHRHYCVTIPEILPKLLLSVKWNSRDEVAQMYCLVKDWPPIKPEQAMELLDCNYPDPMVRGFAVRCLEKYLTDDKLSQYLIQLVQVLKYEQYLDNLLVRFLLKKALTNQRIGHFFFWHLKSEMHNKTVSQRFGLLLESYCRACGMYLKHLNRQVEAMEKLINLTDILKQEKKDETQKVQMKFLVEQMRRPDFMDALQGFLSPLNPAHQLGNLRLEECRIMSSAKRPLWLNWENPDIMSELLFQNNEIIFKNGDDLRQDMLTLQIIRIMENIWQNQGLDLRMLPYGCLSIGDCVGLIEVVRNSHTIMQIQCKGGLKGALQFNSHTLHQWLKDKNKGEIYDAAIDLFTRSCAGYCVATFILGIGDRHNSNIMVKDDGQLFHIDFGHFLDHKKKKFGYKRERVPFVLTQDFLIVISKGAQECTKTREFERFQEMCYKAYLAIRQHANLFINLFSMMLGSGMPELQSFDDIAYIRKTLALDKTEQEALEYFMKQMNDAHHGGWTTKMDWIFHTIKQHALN
Chain of PI3K (P27986 whole entry partner): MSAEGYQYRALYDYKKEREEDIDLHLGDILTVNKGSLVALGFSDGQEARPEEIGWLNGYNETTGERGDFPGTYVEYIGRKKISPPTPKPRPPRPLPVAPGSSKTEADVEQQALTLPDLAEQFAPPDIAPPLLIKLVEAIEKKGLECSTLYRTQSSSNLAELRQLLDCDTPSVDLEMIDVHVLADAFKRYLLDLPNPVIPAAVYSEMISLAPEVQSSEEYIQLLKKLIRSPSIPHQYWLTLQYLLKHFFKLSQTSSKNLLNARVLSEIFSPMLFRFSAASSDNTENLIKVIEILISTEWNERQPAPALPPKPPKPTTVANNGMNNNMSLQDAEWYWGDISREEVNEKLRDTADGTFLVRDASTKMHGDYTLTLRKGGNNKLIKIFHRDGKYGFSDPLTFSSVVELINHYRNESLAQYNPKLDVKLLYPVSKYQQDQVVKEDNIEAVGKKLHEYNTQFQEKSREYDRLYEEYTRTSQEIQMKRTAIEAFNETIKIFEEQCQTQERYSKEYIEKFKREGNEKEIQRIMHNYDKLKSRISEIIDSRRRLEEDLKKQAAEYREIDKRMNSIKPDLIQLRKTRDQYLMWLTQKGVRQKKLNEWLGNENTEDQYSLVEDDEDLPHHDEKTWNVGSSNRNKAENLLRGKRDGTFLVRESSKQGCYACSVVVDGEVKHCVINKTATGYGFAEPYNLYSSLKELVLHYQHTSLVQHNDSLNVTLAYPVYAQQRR

Compound	IC50 [1]	IC50 [2]
COC(=O)N1CCC(n2ncc3c(N4CCOCC4)nc(-c4ccc(NC(=O)Nc5ccc(N6CCN(C)CC6)cc5)cc4)nc32)CC1 [Compound 910, methyl 4-{6-[4-({[4-(4-methylpiperazin-1-yl)phenyl]carbamoyl}amino)phenyl]-4-morpholin-4-yl-1H-pyrazolo[3,4-d]pyrimidin-1-yl}piperidine-1-carboxylate]	0.8 nM	–
COC(=O)Nc1ccc(-c2nc(N3CCOCC3)c3cnn(C4CCN(Cc5cccnc5)CC4)c3n2)cc1 [Example 209, methyl (4-{4-morpholin-4-yl-1-[1-(pyridin-3-ylmethyl)piperidin-4-yl]-1H-pyrazolo[3,4-d]pyrimidin-6-yl}phenyl)carbamate]	1500 nM	–
COC(=O)N1CCC(n2ncc3c(N4CCOCC4)nc(-c4ccc(NC(=O)Nc5ccccc5)cc4)nc32)CC1 [Compound 735, methyl 4-(6-{4-[(anilinocarbonyl)amino]phenyl}-4-morpholin-4-yl-1H-pyrazolo[3,4-d]pyrimidin-1-yl)piperidine-1-carboxylate]	80 nM	–
O=C(Nc1ccccc1)Nc1ccc(-c2nc(N3CCOCC3)c3cnn(C4CCN(Cc5ccccc5)CC4)c3n2)cc1 [Compound 503, 1-{4-[1-(1-benzylpiperidin-4-yl)-4-morpholin-4-yl-1H-pyrazolo[3,4-d]pyrimidin-6-yl]phenyl}-3-phenylurea]	1050 nM	–
CN1CCC(NC(=O)Nc2ccc(-c3nc(N4CCOCC4)c4cnn(C5CCN(Cc6ccccc6)CC5)c4n3)cc2)CC1 [Compound 517, 1-{4-[1-(1-benzylpiperidin-4-yl)-4-morpholin-4-yl-1H-pyrazolo[3,4-d]pyrimidin-6-yl]phenyl}-3-(1-methylpiperidin-4-yl)urea]	1200 nM	–
CC(C)(C)OC(=O)N1CCC(n2ncc3c(N4CCOCC4)nc(-c4ccc(NC(=O)NC5CC5)cc4)nc32)CC1 [Compound 767, tert-butyl 4-(6-{4-[(cyclopropylcarbamoyl)amino]phenyl}-4-morpholin-4-yl-1H-pyrazolo[3,4-d]pyrimidin-1-yl)piperidine-1-carboxylate]	700 nM	–
CNC(=O)Nc1ccc(-c2nc(N3CCOCC3)c3cnn(C4CCN(Cc5ccccc5)CC4)c3n2)cc1 [Example 206, N-{4-[1-(1-benzylpiperidin-4-yl)-4-morpholin-4-yl-1H-pyrazolo[3,4-d]pyrimidin-6-yl]phenyl}-N′-methylurea]	100 nM	–
O=C(NCCO)Nc1ccc(-c2nc(N3CCOCC3)c3cnn(C4CCN(Cc5ccccc5)CC4)c3n2)cc1 [Compound 510, 1-{4-[1-(1-benzylpiperidin-4-yl)-4-morpholin-4-yl-1H-pyrazolo[3,4-d]pyrimidin-6-yl]phenyl}-3-(2-hydroxyethyl)urea]	50 nM	–
COC(=O)N1CCC(n2ncc3c(N4CCOCC4)nc(-c4ccc(NC(=O)Nc5ccc(CCN6CCOCC6)cc5)cc4)nc32)CC1 [Compound 918, methyl 4-{4-morpholin-4-yl-6-[4-({[4-(2-morpholin-4-ylethyl)phenyl]carbamoyl}amino)phenyl]-1H-pyrazolo[3,4-d]pyrimidin-1-yl}piperidine-1-carboxylate]	180 nM	–
O=C(Nc1ccc(-c2nc(N3CCOCC3)c3cnn(C4CCN(Cc5cccnc5)CC4)c3n2)cc1)OCCO [Compound 924, 2-hydroxyethyl (4-{4-morpholin-4-yl-1-[1-(pyridin-3-ylmethyl)piperidin-4-yl]-1H-pyrazolo[3,4-d]pyrimidin-6-yl}phenyl)carbamate]	110 nM	–
CNC(=O)Nc1ccc(-c2nc(N3CCOCC3)c3cnn(C4CCN(C(=O)OC(C)C)CC4)c3n2)cc1 [Compound 752, isopropyl 4-(6-{4-[(methylcarbamoyl)amino]phenyl}-4-morpholin-4-yl-1H-pyrazolo[3,4-d]pyrimidin-1-yl)piperidine-1-carboxylate]	53 nM	–
CCNC(=O)Nc1ccc(-c2nc(N3CCOCC3)c3cnn(C4CCN(Cc5ccccc5)CC4)c3n2)cc1 [Compound 499, 1-{4-[1-(1-benzylpiperidin-4-yl)-4-morpholin-4-yl-1H-pyrazolo[3,4-d]pyrimidin-6-yl]phenyl}-3-ethylurea]	350 nM	–
CNC(=O)Cc1ccc(-c2nc(N3CCOCC3)c3cnn(C4CCN(Cc5ccccc5)CC4)c3n2)cc1 [Compound 616, 2-{4-[1-(1-benzylpiperidin-4-yl)-4-morpholin-4-yl-1H-pyrazolo[3,4-d]pyrimidin-6-yl]phenyl}-N-methylacetamide]	10000 nM	–
CN(C)CCNC(=O)Nc1ccc(-c2nc(N3CCOCC3)c3cnn(C4CCN(Cc5ccccc5)CC4)c3n2)cc1 [Compound 513, 1-{4-[1-(1-benzylpiperidin-4-yl)-4-morpholin-4-yl-1H-pyrazolo[3,4-d]pyrimidin-6-yl]phenyl}-3-[2-(dimethylamino)ethyl]urea]	600 nM	–
CN(C)NC(=O)Nc1ccc(-c2nc(N3CCOCC3)c3cnn(C4CCN(Cc5ccccc5)CC4)c3n2)cc1 [Compound 536, N-{4-[1-(1-benzylpiperidin-4-yl)-4-morpholin-4-yl-1H-pyrazolo[3,4-d]pyrimidin-6-yl]phenyl}-2,2-dimethylhydrazinecarboxamide]	8000 nM	–
CN(C)CC(=O)Nc1ccc(-c2nc(N3CCOCC3)c3cn[nH]c3n2)cc1 [Compound 958, N2,N2-dimethyl-N-[4-(4-morpholin-4-yl-1H-pyrazolo[3,4-d]pyrimidin-6-yl)phenyl]glycinamide]	–	2270 nM
O=C(NCCF)Nc1cc(F)c(-c2nc(N3CCOCC3)c3cnn(C4CCN(C(=O)c5cccnc5)CC4)c3n2)cc1F [Compound 711, 1-(2,5-difluoro-4-{4-morpholin-4-yl-1-[1-(pyridin-3-ylcarbonyl)piperidin-4-yl]-1H-pyrazolo[3,4-d]pyrimidin-6-yl}phenyl)-3-(2-fluoroethyl)urea]	–	2980 nM
CNC(=O)Nc1ccc(-c2nc(N3CCOCC3)c3cnn(C4CCN(C(=O)c5ccncc5)CC4)c3n2)cc1 [Example 417, 1-{4-[1-(1-isonicotinoylpiperidin-4-yl)-4-morpholin-4-yl-1H-pyrazolo[3,4-d]pyrimidin-6-yl]phenyl}-3-methylurea]	–	160 nM
Nc1cccc(-c2nc(N3CCOCC3)c3cnn(C4CCN(C(=O)c5cccnc5)CC4)c3n2)n1 [Compound 680, 6-{4-morpholin-4-yl-1-[1-(pyridin-3-ylcarbonyl)piperidin-4-yl]-1H-pyrazolo[3,4-d]pyrimidin-6-yl}pyridin-2-amine]	–	4990 nM
FC(F)(F)CN1CCC(n2ncc3c(N4CCOCC4)nc(-c4ccc5[nH]ccc5c4)nc32)CC1 [Compound 715, 6-(1H-indol-5-yl)-4-morpholin-4-yl-1-[1-(2,2,2-trifluoroethyl)piperidin-4-yl]-1H-pyrazolo[3,4-d]pyrimidine]	–	2880 nM
CNC(=O)Nc1ccc(-c2nc(N3CCOCC3)c3cn[nH]c3n2)cc1 [Example 236, 1-methyl-3-[4-(4-morpholin-4-yl-1H-pyrazolo[3,4-d]pyrimidin-6-yl)phenyl]urea]	–	105 nM
CN(C)CC=CC(=O)N1CCC(n2ncc3c(N4CCOCC4)nc(-c4ccc5[nH]ccc5c4)nc32)CC1 [Compound 957, 4-{4-[6-(1H-indol-5-yl)-4-morpholin-4-yl-1H-pyrazolo[3,4-d]pyrimidin-1-yl]piperidin-1-yl}-N,N-dimethyl-4-oxobut-2-en-1-amine]	–	480 nM
c1ccc(CN2CCC(n3ncc4c(N5CCOCC5)nc(-c5ccc6c(c5)OCO6)nc43)CC2)cc1 [Example 33]	–	1160 nM
C[C@@H]1CN(c2nc(-c3cccc(O)c3)nc3c2cnn3-c2ccccc2)C[C@H](C)O1 [Compound 478, 3-{4-[(2R,6S)-2,6-dimethylmorpholin-4-yl]-1-phenyl-1H-pyrazolo[3,4-d]pyrimidin-6-yl}phenol]	–	9500 nM
COC(=O)Nc1ccc(-c2nc(N3CCOCC3)c3cnn(C4CCN(C(=O)c5ccccc5)CC4)c3n2)cc1 [Compound 686, methyl {4-[1-(1-benzoylpiperidin-4-yl)-4-morpholin-4-yl-1H-pyrazolo[3,4-d]pyrimidin-6-yl]phenyl}carbamate]	–	1010 nM
O=C(NCc1ccccc1)Nc1ccc(-c2nc(N3CCOCC3)c3cnn(C4CCN(Cc5ccccc5)CC4)c3n2)cc1 [Compound 258, 1-benzyl-3-{4-[1-(1-benzylpiperidin-4-yl)-4-morpholin-4-yl-1H-pyrazolo[3,4-d]pyrimidin-6-yl]phenyl}urea]	–	533 nM
Oc1cccc(-c2nc(N3CCSCC3)c3cnn(-c4ccccc4)c3n2)c1 [Compound 963, 3-(1-phenyl-4-thiomorpholin-4-yl-1H-pyrazolo[3,4-d]pyrimidin-6-yl)phenol]	–	1620 nM
CCNC(=O)Nc1ccc(-c2nc(N3CCOCC3)c3cnn(C4CCN(Cc5cccnc5)CC4)c3n2)cc1F [Example 372, 1-ethyl-3-(2-fluoro-4-{4-morpholin-4-yl-1-[1-(pyridin-3-ylmethyl)piperidin-4-yl]-1H-pyrazolo[3,4-d]pyrimidin-6-yl}phenyl)urea]	–	424 nM
CNC(=S)Nc1ccc(-c2nc(N3CCOCC3)c3cnn(C4CCN(Cc5ccccc5)CC4)c3n2)cc1 [Example 325, 1-{4-[1-(1-benzylpiperidin-4-yl)-4-morpholin-4-yl-1H-pyrazolo[3,4-d]pyrimidin-6-yl]phenyl}-3-methylthiourea]	–	71 nM
O=C(Nc1ccccc1)Nc1cc(F)c(-c2nc(N3CCOCC3)c3cnn(C4CCN(C(=O)c5cccnc5)CC4)c3n2)cc1F [Compound 713, 1-(2,5-difluoro-4-{4-morpholin-4-yl-1-[1-(pyridin-3-ylcarbonyl)piperidin-4-yl]-1H-pyrazolo[3,4-d]pyrimidin-6-yl}phenyl)-3-phenylurea]	–	173 nM
